From the SangsterLogP compilation

Assay: method code SF-AS, from DOI: 10.1016/0165-022x(96)00008-5, PMID: 8844325

Compound	logP
COc1cccc(C=[N+]([O-])C(C)(C)C)c1	1.41
COc1cc(OC)c(C=[N+]([O-])C(C)(C)C)c(OC)c1	1.19
Cc1ccccc1C=[N+]([O-])C(C)(C)C	1.53
CC(C)(C)[N+]([O-])=Cc1ccc(C#N)cc1	0.52
CC(C)(C)[N+]([O-])=Cc1cccc(O)c1	1
CC(C)(C)[N+]([O-])=Cc1cc[n+]([O-])cc1	-0.82
CC(C)(C)[N+]([O-])=Cc1cccc([N+](=O)[O-])c1	1.3
CC(C)(C)[N+]([O-])=Cc1ccccc1Br	2.52
CC(C)(C)[N+]([O-])=Cc1ccncc1	0.4

Now from value to molecule:

logP	Compound
1.31	CC(C)(C)[N+]([O-])=Cc1ccccc1O
0.2	CC1(C)CCC(C(F)(F)F)=[N+]1[O-]
1.03	CC1(C)CCC(c2ccccc2)=[N+]1[O-]
-0.15	CC1(C)C=[N+]([O-])C(C)(C)C1
0.58	CC(C)(C)[N+]([O-])=Cc1ccc(O)cc1
0.84	CC(C)(C)[N+]([O-])=Cc1ccccc1[N+](=O)[O-]
1.39	CC(C)(C)[N+]([O-])=Cc1ccc([N+](=O)[O-])cc1
2.39	CC(C)(C)[N+]([O-])=Cc1ccc(Cl)cc1
1.98	CC(C)(C)[N+]([O-])=Cc1ccc(Br)cc1
1.58	Cc1cccc(C=[N+]([O-])C(C)(C)C)c1
1.05	CC(C)(C)[N+]([O-])=Cc1ccc(C(=O)O)cc1
